One data set can be described thus: physchem. Conditions: pH 7.4, aqueous buffer, thermodynamic from solid. An excerpt:
It will be understood that parameters such as solubility may be measured by any suitable technique known in the art.

Another data set has as its target T1, MAO-A (Homo sapiens, UniProt P21397).
T1 construct: made in house; host or cells: yeast
T1 sequence (P21397 1-527): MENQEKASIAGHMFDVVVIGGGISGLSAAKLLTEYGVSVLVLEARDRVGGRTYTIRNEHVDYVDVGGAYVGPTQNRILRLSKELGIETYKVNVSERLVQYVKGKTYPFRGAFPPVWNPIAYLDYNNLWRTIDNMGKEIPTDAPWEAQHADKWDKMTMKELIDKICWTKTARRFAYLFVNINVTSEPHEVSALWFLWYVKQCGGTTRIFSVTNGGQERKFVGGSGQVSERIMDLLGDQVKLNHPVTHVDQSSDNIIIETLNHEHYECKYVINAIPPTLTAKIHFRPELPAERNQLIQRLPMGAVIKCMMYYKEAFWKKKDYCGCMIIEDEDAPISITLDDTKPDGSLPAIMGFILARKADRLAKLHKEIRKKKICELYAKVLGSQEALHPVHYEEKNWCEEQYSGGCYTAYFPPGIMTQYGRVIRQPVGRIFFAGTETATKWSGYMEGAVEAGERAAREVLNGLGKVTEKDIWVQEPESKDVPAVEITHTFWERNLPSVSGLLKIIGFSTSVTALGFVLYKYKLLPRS
Nature of the data set: MAO-A inhibition, standard in-vitro assay. In kind it is biochemical. Conditions: human liver enzyme expressed in yeast. How it is done: Inhibition of mono-amine oxidase (MAO) is a known potential side effect of oxazolidinone antibiotics (see for example WO 03/072575).
The activity of the compounds of the invention against MAO-A was tested using a standard in-vitro assay based on human liver enzyme expressed in yeast as described in Biochem. Biophys. Res. Commun. 1991, 181, 1084-1088. Compounds of the invention typically give Ki values of >5 μM when measured in such an assay as above.

Data set [1] has as its system Staphylococcus aureus MSQS. Nature of the data set: MIC, agar-dilution, Staphylococcus aureus MSQS. In kind it is cell-based. Particulars: Staphylococcus aureus MSQS (methicillin sensitive and quinolone sensitive), 10^4 CFU/spot, 37° C., 24 hours. Here is the method: (§1) The following results were obtained on a standard in-vitro test system. The activity is described in terms of the minimum inhibitory concentration (MIC) determined by the agar-dilution technique with an inoculum size of 10^4 CFU/spot. Typically, compounds are active in the range 0.01 to 256 μg/ml.
(§2) Staphylococci were tested on agar, using an inoculum of 10^4 CFU/spot and an incubation temperature of 37° C. for 24 hours—standard test conditions for the expression of methicillin resistance.

Data set [2] deals with Staphylococcus aureus MRQR. Nature of the data set: MIC, agar-dilution, Staphylococcus aureus MRQR. Conditions: Staphylococcus aureus MRQR (methicillin resistant and quinolone resistant), 10^4 CFU/spot, 37° C., 24 hours. The format is cell-based. Here is the method: as §1, §2
For a further data set, the system named is Streptococcus pneumoniae. The experiment in a line: MIC, agar-dilution, Streptococcus pneumoniae. Particulars: agar with 5% defibrinated horse blood, 37° C., 5% carbon dioxide, 48 hours. The format is cell-based. How it is done: as §1
(§3) Streptococci and enterococci were tested on agar supplemented with 5% defibrinated horse blood, an inoculum of 10^4 CFU/spot and an incubation temperature of 37° C. in an atmosphere of 5% carbon dioxide for 48 hours—blood is required for the growth of some of the test organisms. Fastidious Gram negative organisms were tested in Mueller-Hinton broth, supplemented with hemin and NAD, grown aerobically for 24 hours at 37° C., and with an innoculum of 5×10^4 CFU/well.

The next data set has as its system Haemophilus influenzae. Nature of the data set: MIC, Haemophilus influenzae. The format is cell-based. Particulars: Mueller-Hinton broth with hemin and NAD, 24 hours, 37° C. How it is done:
as §1, §3

Another data set concerns Moraxella catarrhalis. The experiment in a line: MIC, Moraxella catarrhalis. In kind it is cell-based. Particulars: Mueller-Hinton broth with hemin and NAD, 24 hours, 37° C. Here is the method: as §1, §3
The subject of data set [3] is Linezolid Resistant Streptococcus pneumoniae. The experiment in a line: MIC, Linezolid Resistant Streptococcus pneumoniae. The format is cell-based. How it is done:
as §1, §3

≈ marks a conversion by molar mass, not a printed value. Counter-ions that a name gives are not always drawn.

The melting point is the temperature, or range, at which the solid turns liquid. With `O=C(c1ccc(-c2ccc(N3C[C@H](Cn4ccnn4)OC3=O)cc2F)cn1)C1CNC1` (as salt: hydrochloride) [Example 9, (5R)-3-{4-[6-(Azetidin-3-ylcarbonyl)pyridin-3-yl]-3-fluorophenyl}-5-(1H-1,2,3-triazol-1-ylmethyl)-1,3-oxazolidin-2-one], the melting point was > 90 °C (dec.). Broadly, the thermodynamic solubility is the concentration in solution at equilibrium with solid. In “physchem”, `CC(=O)NC[C@H]1CN(c2ccc(-c3ccc(-c4nnn(C)n4)nc3)c(F)c2)C(=O)O1` [Reference Example 4] yielded a solubility (thermodynamic) of 35.1 µM (≈ 14.4 µg/mL).

The term Ki denotes the dissociation constant of the complex between target and ligand, obtained from inhibition or displacement. With `O=C1O[C@@H](Cn2ccnn2)CN1c1ccc(-c2ccc(/C=N/O)nc2)c(F)c1` [Ref Example 3, 5-{2-Fluoro-4-[(5R)-2-oxo-5-(1H-1,2,3-triazol-1-ylmethyl)-1,3-oxazolidin-3-yl]phenyl}pyridine-2-carbaldehyde oxime], the melting point is > 230 °C (dec.). This compound returned a Ki on MAO-A of under 300 nM. The compound `Cc1cn(CC(=O)c2ccc(-c3ccc(N4C[C@H](Cn5ccnn5)OC4=O)cc3F)cn2)c(C)n1` [Example 13, (5R)-3-(4-{6-[(2,4-Dimethyl-1H-imidazol-1-yl)acetyl]pyridin-3-yl}-3-fluorophenyl)-5-(1H-1,2,3-triazol-1-ylmethyl)-1,3-oxazolidin-2-one] displayed a melting point of 78 °C. The same measure, in the same setting: with `CCCc1nccn1CC(=O)c1ccc(-c2ccc(N3C[C@H](Cn4ccnn4)OC3=O)cc2F)cn1` [Example 11] the figure was 81 °C. In turn, `O=C(CCCN1CCOCC1)c1ccc(-c2ccc(N3C[C@H](Cn4ccnn4)OC3=O)cc2F)cn1` [Example 2, (5R)-3-{3-Fluoro-4-[6-(4-morpholin-4-ylbutanoyl)pyridin-3-yl]phenyl}-5-(1H-1,2,3-triazol-1-ylmethyl)-1,3-oxazolidin-2-one] returned a Ki on MAO-A of 15000 nM.

Regarding `Cc1cn(CC(=O)c2ccc(-c3ccc(N4C[C@H](Cn5ccnn5)OC4=O)cc3F)cn2)cn1` (as salt: hydrochloride) [Example 5, (5R)-3-(3-Fluoro-4-{6-[(4-methyl-1H-imidazol-1-yl)acetyl]pyridin-3-yl}phenyl)-5-(1H-1,2,3-triazol-1-ylmethyl)-1,3oxazolidin-2-one], the melting point is > 217 °C (dec.). For the compound `O=C(c1ccc(-c2ccc(N3C[C@H](Cn4ccnn4)OC3=O)cc2F)cn1)C1CCNCC1` (as salt: hydrochloride) [Example 8, (5R)-3-{3-Fluoro-4-[6-(piperidin-4-ylcarbonyl)pyridin-3-yl]phenyl}-5-(1H-1,2,3-triazol-1-ylmethyl)-1,3-oxazolidin-2-one], the melting point is > 275 °C (dec.).

The compound `CCc1nccn1CC(=O)c1ccc(-c2ccc(N3C[C@H](Cn4ccnn4)OC3=O)cc2F)cn1` [Example 14, (5R)-3-(4-{6-[(2-Ethyl-1H-imidazol-1-yl)acetyl]pyridin-3-yl}-3-fluorophenyl)-5-(1H-1,2,3-triazol-1-ylmethyl)-1,3-oxazolidin-2-one] had a melting point of 77 to 79 °C. In the case of `O=Cc1ccc(-c2ccc(N3C[C@H](Cn4ccnn4)OC3=O)cc2F)cn1` [Ref Example 2, 5-{2-Fluoro4-[(5R)-2-oxo-5-(1H-1,2,3-triazol-1-ylmethyl)-1,3-oxazolidin-3-yl]phenyl}pyridine-2-carbaldehyde], the melting point was > 180 °C (dec.). Also, the Ki on MAO-A stood at 700 nM. With `CC(=O)c1ccc(-c2ccc(N3C[C@H](Cn4ccnn4)OC3=O)cc2F)cn1` [Ref Example 1, (5R)-3-[4-(6-Acetylpyridin-3-yl)-3-fluorophenyl]-5-(1H-1,2,3-triazol-1-ylmethyl)-1,3-oxazolidin-2-one], the melting point is > 210 °C (dec.). In addition, the affinity at MAO-A corresponds to a Ki of 720 nM. Regarding `O=C(Cn1ccnc1)c1ccc(-c2ccc(N3C[C@H](Cn4ccnn4)OC3=O)cc2F)cn1` (as salt: hydrochloride) [Example 1, (5R)-3-{3-Fluoro-4-[6-(1H-imidazol-1-ylacetyl)pyridin-3-yl]phenyl}-5-(1H-1,2,3-triazol-1-ylmethyl)-1,3-oxazolidin-2-one], the melting point is > 230 °C (dec.). Regarding `Cn1nnc(-c2ccc(-c3ccc(N4C[C@H](Cn5ccnn5)OC4=O)cc3F)cn2)n1` [Reference Example 5, (5R)-3-(3-Fluoro-4-(6-(2-methyl-2H-tetrazol-5-yl)pyrid-3-yl)phenyl)-5-(1H-1,2,3-triazol-1-ylmethyl)-1,3-oxazolidin-2-one], the solubility (thermodynamic) in “physchem” is under 7.1 µM. Turning to `O=C(CC1CCNCC1)c1ccc(-c2ccc(N3C[C@H](Cn4ccnn4)OC3=O)cc2F)cn1` (as salt: hydrochloride) [Example 6, (5R)-3-{3-Fluoro-4-[6(piperidin-4-ylacetyl)pyridin-3-yl]phenyl}-5-(1H-1,2,3-triazol-1-ylmethyl)-1,3-oxazolidin-2-one], the melting point is > 196 °C (dec.). `CC(C)(C)O/N=C/c1ccc(-c2ccc(N3C[C@H](Cn4ccnn4)OC3=O)cc2F)cn1` [Example 3] came in with a melting point of 192 °C. Besides, the inhibition constant (Ki) on MAO-A was 6400 nM. Regarding `Cc1nccn1CC(=O)c1ccc(-c2ccc(N3C[C@H](Cn4ccnn4)OC3=O)cc2F)cn1` (as salt: hydrochloride) [Example 4], the melting point is > 240 °C (dec.). With `CC(C)c1nccn1CC(=O)c1ccc(-c2ccc(N3C[C@H](Cn4ccnn4)OC3=O)cc2F)cn1` [Example 12], the melting point is 82 to 83 °C. As for `COCc1nccn1CC(=O)c1ccc(-c2ccc(N3C[C@H](Cn4ccnn4)OC3=O)cc2F)cn1` [Example 15, (5R)-3-[3-Fluoro-4-(6-{[2-(methoxymethyl)-1H-imidazol-1-yl]acetyl}pyridin-3-yl)phenyl]-5-(1H-1,2,3-triazol-1-ylmethyl)-1,3-oxazolidin-2-one], the melting point fell in the range of 78 to 80 °C.

One may read the solubility as the dissolved amount per volume that the medium holds. Low readings indicate little dissolved substance, high ones much dissolved substance. `O=C(Cn1ccnc1)c1ccc(-c2ccc(N3C[C@H](Cn4ccnn4)OC3=O)cc2F)cn1` [Example 1, (5R)-3-{3-Fluoro-4-[6-(1H-imidazol-1-ylacetyl)pyridin-3-yl]phenyl}-5-(1H-1,2,3-triazol-1-ylmethyl)-1,3-oxazolidin-2-one]: the solubility in the data set “physchem” is 1450 µM (≈ 650 µg/mL). Moreover, the MIC in [1] was 0.25 µg/mL (≈ 0.559 µM); in data set [2] it was 0.25 µg/mL (≈ 0.559 µM); in the data set with Streptococcus pneumoniae, 0.13 µg/mL (≈ 0.291 µM); with Haemophilus influenzae, 2 µg/mL (≈ 4.47 µM); with Moraxella catarrhalis, 0.5 µg/mL (≈ 1.12 µM); in data set [3], 0.5 µg/mL (≈ 1.12 µM). The Ki on MAO-A was over 5000 nM.

The values above are taken from patent US20080021012A1, “3-[4-{6-Substituted Alkanoyl Pyridin-3-Yl}-3-Phenyl]-5-(1H-1,2,3-Triazol-1-Ylmethyl)-1,3-Oxazolidin-2-Ones As Antibacterial Agents” (ASTRAZENECA AB, priority 2004, published 2008).
